Experiments:
Format in all cases: in vivo
[1] = tested on: Spodoptera littoralis (Egyptian Cotton Leaf Worm); test: Spodoptera littoralis (Egyptian cotton leaf worm) test on sprayed cotton leaf discs; settings: foliar, 72 h, application rate of 200 ppm, L1 larvae, 3 days after infestation, in comparison to untreated samples, read-out: control (mortality, anti-feeding effect, or growth inhibition)
Description: Example B8: Spodoptera littoralis (Egyptian Cotton Leaf Worm)
Cotton leaf discs were placed onto agar in 24-well microtiter plates and sprayed with aqueous test solutions prepared from 10′000 ppm DMSO stock solutions. After drying the leaf discs were infested with five L1 larvae. The samples were assessed for mortality, anti-feeding effect, and growth inhibition in comparison to untreated samples 3 days after infestation. Control of Spodoptera littoralis by a test sample is given when at least one of the categories mortality, anti-feedant effect, and growth inhibition is higher than the untreated sample.

[2] = tested on: Plutella xylostella (Diamond Back Moth); test: Plutella xylostella (diamond back moth) artificial diet test; settings: 120 h, application rate of 200 ppm, L2 larvae, artificial diet treated by pipetting, 5 days after infestation, in comparison to untreated samples, read-out: effect in at least one of the two categories (mortality or growth inhibition)
Description: Example B7: Plutella xylostella (Diamond Back Moth)
24-well microtiter plates with artificial diet were treated with aqueous test solutions prepared from 10′000 ppm DMSO stock solutions by pipetting. After drying, the plates were infested with L2 larvae (10 to 15 per well). The samples were assessed for mortality and growth inhibition in comparison to untreated samples 5 days after infestation.
(§1) The following compounds gave an effect of at least 80% in at least one of the two categories (mortality or growth inhibition) at an application rate of 200 ppm: P1, P2, P3, P4.

[3] = tested on: Diabrotica balteata (Corn Root Worm); test: Diabrotica balteata (corn root worm) test on sprayed maize sprouts; settings: 96 h, application rate of 200 ppm, L2 larvae, 4 days after infestation, in comparison to untreated samples, read-out: effect in at least one of the two categories (mortality or growth inhibition)
Description: Example B2: Diabrotica balteata (Corn Root Worm)
Maize sprouts placed onto an agar layer in 24-well microtiter plates were treated with aqueous test solutions prepared from 10′000 ppm DMSO stock solutions by spraying. After drying, the plates were infested with L2 larvae (6 to 10 per well). The samples were assessed for mortality and growth inhibition in comparison to untreated samples 4 days after infestation.
as §1

CCS(=O)(=O)c1cc(-c2cc(F)cc(F)c2)cnc1-n1cc2ncc(C(F)(F)F)cc2n1 [P1, 2-[5-(3,5-difluorophenyl)-3-ethylsulfonyl-2-pyridyl]-6-(trifluoromethyl)pyrazolo[4,3-b]pyridine]
≥ 80%: percent control (mortality, anti-feedant effect or growth inhibition) at 200 ppm [1] | percent effect (mortality or growth inhibition) at 200 ppm [2] | percent effect (mortality or growth inhibition) at 200 ppm [3]

CCS(=O)(=O)c1cc(-c2cccc(F)c2)cnc1-n1cc2ncc(C(F)(F)F)cc2n1 [P2]
≥ 80%: percent control (mortality, anti-feedant effect or growth inhibition) at 200 ppm [1] | percent effect (mortality or growth inhibition) at 200 ppm [2] | percent effect (mortality or growth inhibition) at 200 ppm [3]

CCS(=O)(=O)c1cc(-c2cc(F)cc(F)c2)cnc1-n1cc2ccc(C(F)(F)F)cc2n1 [P3, 2-[5-(3,5-difluorophenyl)-3-ethylsulfonyl-2-pyridyl]-6-(trifluoromethyl)indazole]
≥ 80%: percent control (mortality, anti-feedant effect or growth inhibition) at 200 ppm [1] | percent effect (mortality or growth inhibition) at 200 ppm [2] | percent effect (mortality or growth inhibition) at 200 ppm [3]

CCS(=O)(=O)c1cc(-c2cccc(F)c2)cnc1-n1cc2ccc(C(F)(F)F)cc2n1 [P4]
≥ 80%: percent control (mortality, anti-feedant effect or growth inhibition) at 200 ppm [1] | percent effect (mortality or growth inhibition) at 200 ppm [2] | percent effect (mortality or growth inhibition) at 200 ppm [3]

Source: US10667518B2, “Pesticidally active heterocyclic derivatives with sulphur containing substituents” (SYNGENTA PARTICIPATIONS AG, priority 2016, dated 2020)
